According to ChEMBL document CHEMBL3046796, “Evaluation of a new lead for acetylcholinesterase inhibition” (Med Chem Res, 2009):
pIC50: −log10 of the molar value.

How the values were obtained:
Acetylcholinesterase = Acetylcholinesterase (Electrophorus electricus, UniProt O42275); assay: Inhibition of Electrophorus electricus (electric eel) acetylcholinesterase (AChE) using […] as substrate by Ellman method
[1] = target: Cholinesterase (Equus caballus) (UniProt P81908); assay: Inhibition of Equus caballus (horse) serum butyrylcholinesterase (BChE) at 10 '-5 M by Ellman method
[2] = target: Cholinesterase (Equus caballus) (UniProt P81908); assay: Inhibition of Equus caballus (horse) serum butyrylcholinesterase (BChE) at 10 '-4 M by Ellman method
[3] = target: Acetylcholinesterase (Electrophorus electricus) (UniProt O42275); assay: Inhibition of Electrophorus electricus (electric eel) acetylcholinesterase (AChE) using […] as substrate at 10 '-5 M by Ellman method
Chain of Acetylcholinesterase (Electrophorus electricus) (O42275 24-633 limits assumed): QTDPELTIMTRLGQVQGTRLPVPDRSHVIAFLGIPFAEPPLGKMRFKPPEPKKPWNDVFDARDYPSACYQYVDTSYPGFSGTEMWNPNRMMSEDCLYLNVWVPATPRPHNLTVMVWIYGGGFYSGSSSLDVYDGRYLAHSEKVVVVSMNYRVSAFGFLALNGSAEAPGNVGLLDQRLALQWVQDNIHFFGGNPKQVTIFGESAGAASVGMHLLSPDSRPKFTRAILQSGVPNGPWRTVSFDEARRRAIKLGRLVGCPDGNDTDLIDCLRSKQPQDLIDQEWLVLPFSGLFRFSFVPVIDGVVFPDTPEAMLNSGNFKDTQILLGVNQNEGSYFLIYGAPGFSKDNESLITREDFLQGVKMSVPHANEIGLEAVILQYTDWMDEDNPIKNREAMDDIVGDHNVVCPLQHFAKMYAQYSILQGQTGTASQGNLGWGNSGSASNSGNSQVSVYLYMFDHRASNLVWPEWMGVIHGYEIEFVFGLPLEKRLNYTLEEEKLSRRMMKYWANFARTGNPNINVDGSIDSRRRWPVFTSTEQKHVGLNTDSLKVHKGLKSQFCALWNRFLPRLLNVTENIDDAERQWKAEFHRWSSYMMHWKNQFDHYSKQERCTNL

Chain of Cholinesterase (Equus caballus) (P81908 whole entry): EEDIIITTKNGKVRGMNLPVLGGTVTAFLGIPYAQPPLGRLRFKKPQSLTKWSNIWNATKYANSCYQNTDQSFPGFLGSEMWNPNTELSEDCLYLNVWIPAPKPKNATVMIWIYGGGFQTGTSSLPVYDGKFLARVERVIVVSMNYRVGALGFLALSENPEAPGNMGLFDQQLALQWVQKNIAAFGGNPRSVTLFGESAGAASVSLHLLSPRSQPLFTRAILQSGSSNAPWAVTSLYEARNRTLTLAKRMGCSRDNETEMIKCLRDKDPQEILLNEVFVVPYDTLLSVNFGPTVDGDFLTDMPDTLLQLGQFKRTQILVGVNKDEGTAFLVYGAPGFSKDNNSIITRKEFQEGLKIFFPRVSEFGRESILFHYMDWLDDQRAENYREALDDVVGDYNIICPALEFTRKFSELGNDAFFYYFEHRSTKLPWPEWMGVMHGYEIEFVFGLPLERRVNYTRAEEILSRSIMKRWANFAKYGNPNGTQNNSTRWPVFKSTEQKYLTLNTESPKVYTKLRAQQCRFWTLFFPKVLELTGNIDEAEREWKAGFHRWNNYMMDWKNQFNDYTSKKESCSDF
Chain of Acetylcholinesterase (O42275 whole entry): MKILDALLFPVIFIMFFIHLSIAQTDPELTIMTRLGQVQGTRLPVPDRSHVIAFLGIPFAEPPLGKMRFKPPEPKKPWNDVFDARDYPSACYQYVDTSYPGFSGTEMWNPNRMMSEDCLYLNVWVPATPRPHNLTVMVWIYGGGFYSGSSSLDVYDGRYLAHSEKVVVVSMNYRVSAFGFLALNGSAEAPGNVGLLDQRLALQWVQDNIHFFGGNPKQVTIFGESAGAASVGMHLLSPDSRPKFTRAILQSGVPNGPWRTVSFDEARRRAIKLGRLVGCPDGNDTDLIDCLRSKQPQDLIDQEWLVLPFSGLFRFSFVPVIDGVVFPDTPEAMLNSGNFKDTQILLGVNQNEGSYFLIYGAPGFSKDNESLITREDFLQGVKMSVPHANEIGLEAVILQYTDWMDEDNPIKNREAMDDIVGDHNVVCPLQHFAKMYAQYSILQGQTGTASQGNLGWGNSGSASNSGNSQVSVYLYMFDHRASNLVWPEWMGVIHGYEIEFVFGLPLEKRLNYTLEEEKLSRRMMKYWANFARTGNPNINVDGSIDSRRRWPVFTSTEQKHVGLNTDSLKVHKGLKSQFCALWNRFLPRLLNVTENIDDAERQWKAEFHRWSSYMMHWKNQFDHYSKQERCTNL

COc1ccc(Cc2nccc3cc(OC)c(OC)cc23)cc1OC [PAPAVERINE]
pIC50 (Acetylcholinesterase): 4.61

COc1ccc(C(O)c2nccc3cc(OC)c(OC)cc23)cc1OC (stereo not drawn)
pIC50 (Acetylcholinesterase): 4.97

COc1ccc(CCNC(=O)Cc2ccc(OC)c(OC)c2)cc1OC
inhibition [1]: 0%
inhibition [2]: 1.7%
inhibition [3]: 5.9%

COc1ccc(C(=O)c2nccc3cc(OC)c(OC)cc23)cc1OC
inhibition [3]: 2.3%

COc1ccc(CC2NCCc3cc(OC)c(OC)cc32)cc1OC (stereo not drawn)
inhibition [1]: 5.2%
inhibition [2]: 17.4%
inhibition [3]: 9%

COc1ccc(CC2=NCCc3cc(OC)c(OC)cc32)cc1OC
inhibition [1]: 0%
inhibition [2]: 18%
pIC50 (Acetylcholinesterase): 5.15
inhibition [3]: 53%
